Data: US5994055A, “HIV trans-activator Tat binding to CDK7 and activation of CTD phosphorylation” (priority 1997, dated 1999)
Where no end group is shown, it is not given here. [ ]: non-standard residue; d: D form.

Assays:
[1] = target: T1, recombinant CAK (CDK7, cyclin H, MAT1) (Homo sapiens, UniProt P50613); assay: Kinase reaction: phosphorylation of the CTD by recombinant CAK; assay type: biochemical
T1 construct: made in house; host or cells: Sf9 insect cells (baculovirus co-infection)
Description: Recombinant baculoviruses encoding human CDK7 (Fisher et al., Cell 78:713-724 (1994)), MAT1 (Fisher et al., Cell 83:47-57 (1995)), and an N-terminally 6-histidine tagged version of cyclin H (Kim et al., Cell 77:599-608 (1994)) were constructed as described. 4×10^9 Sf9 insect cells were co-infected with all three baculoviruses (multiplicity of infection for each virus: 5 pfu/cell), incubated 2 days at 28° C., and harvested by centrifugation. Cells were resuspended in 120 ml buffer A (20 mM Na phosphate, 25 mM NaCl, 1 mM PMSF, 1 Ag/ml leupeptin, 2 μg/ml aprotinin, 1 mM DTT (pH 7.4). NaCl concentration was raised to 300 mM and the lysate was clarified by centrifugation and loaded over tandem 5-ml Pharmacia HiTrap Chelating columns loaded with CoCl2 and preequilibrated with buffer B (300 mM NaCl, 20 mM Na phosphate, 10% glycerol (pH 7.2)). The column was washed with buffer B+1 mM DTT and eluted with a linear gradient of 0-200 mM imidazole in buffer B+1 mM DTT. Fractions containing the CAK trimer were pooled, diluted 4-fold in buffer C (20 mM Hepes-NaOH, 1 mM EDTA, 10% glycerol, 1 mM DTT (pH 7.4)), and loaded on a 5 ml Pharmacia HiTrap Q column pre-equilibrated with buffer C. The column was washed with buffer C and eluted with a linear gradient of 25-1000 mM NaCl in buffer C. […]

[2] = system: Tat trans-activation of the HIV LTR; assay: In vitro run-off transcription from the wild-type HIV LTR; assay type: biochemical; conditions: increasing concentrations / concentration not stated
Description: The ability of molecules to inhibit Tat trans-activation can be assessed using a variety of in vitro and in vivo assays. For example, Tat trans-activation can be assessed using in vitro run-off transcription reactions with transcription extracts (see, e.g., Current Protocols in Molecular Biology (Ausubel et al., eds., 1997)). In such an assay, nuclear transcription extracts are prepared from cultured mammalian cells according to standard procedures (see, e.g., Dignam et al., Nuc. Acids. Res. 11: 1475-1489 (1983)). Recombinant Tat protein is isolated according to standard procedures and added to the nuclear transcription extract along with the other components of the transcription reaction such as nucleotides (see, e.g., Cujec et al., supra; Example V). The reaction is also supplied with HIV promoter DNA sequences operably linked to a structural gene.
Run-off transcription reactions from the wild-type HIV LTR and AdMLT promoters linearized with NcoI and HindIII respectively, were carried out as described (Okamoto et al., Proc. Natl. Acad. Sci. USA 93:11575-11579 (1996); Cujec et al., Mol. Cell. Biol. 17:1817-1823 (1997)). […]

DHFR promoter = assay: In vitro transcription from the DHFR promoter (G-less cassette); assay type: biochemical; conditions: concentration not given
Description: Run-off transcription reactions from the wild-type HIV LTR and AdMLT promoters linearized with NcoI and HindIII respectively, were carried out as described (Okamoto et al., Proc. Natl. Acad. Sci. USA 93:11575-11579 (1996); Cujec et al., Mol. Cell. Biol. 17:1817-1823 (1997)). Transcription reactions containing the DHFR promoter (500 ng) fused to a G-less cassette (linearized at Nco I) were supplemented with 3 mM (NH4)2 SO4, 2% PEG 8000, 50 units of T1 RNase (Boehringer-Mannheim), 500 U of RNase inhibitor (Boehringer-Mannheim) and contained 5 μM instead of 40 μM of unlabeled UTP. Phosphocreatine, poly (d)I-(d)C, and poly(rI-rC) were omitted from the reactions.

[3] = system: Tat trans-activation of the HIV LTR in COS-7 cells; assay: Peptide electroporation into COS-7 cells with pHIVΔKBCAT reporter, RNase protection assay; assay type: cell-based

T1 sequence (P51946 whole entry): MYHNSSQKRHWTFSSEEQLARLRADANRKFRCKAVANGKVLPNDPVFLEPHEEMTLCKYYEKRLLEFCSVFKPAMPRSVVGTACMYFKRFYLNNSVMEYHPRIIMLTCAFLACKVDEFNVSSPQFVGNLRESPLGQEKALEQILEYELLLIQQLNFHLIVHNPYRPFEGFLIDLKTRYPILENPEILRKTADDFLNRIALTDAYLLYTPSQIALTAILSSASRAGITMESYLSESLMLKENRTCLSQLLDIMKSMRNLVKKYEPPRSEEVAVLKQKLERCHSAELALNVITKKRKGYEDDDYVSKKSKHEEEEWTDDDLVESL
T1 sequence (P50613 2-346): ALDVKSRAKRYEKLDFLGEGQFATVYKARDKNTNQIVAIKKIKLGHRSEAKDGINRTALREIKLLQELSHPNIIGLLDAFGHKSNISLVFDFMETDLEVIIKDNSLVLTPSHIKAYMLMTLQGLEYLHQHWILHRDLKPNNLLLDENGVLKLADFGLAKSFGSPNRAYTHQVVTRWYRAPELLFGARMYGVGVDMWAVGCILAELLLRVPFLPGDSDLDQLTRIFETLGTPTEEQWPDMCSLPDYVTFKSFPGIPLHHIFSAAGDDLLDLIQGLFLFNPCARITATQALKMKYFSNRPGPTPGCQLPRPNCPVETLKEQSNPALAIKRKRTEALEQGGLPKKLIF
T1 sequence (P51949 whole entry, further chain): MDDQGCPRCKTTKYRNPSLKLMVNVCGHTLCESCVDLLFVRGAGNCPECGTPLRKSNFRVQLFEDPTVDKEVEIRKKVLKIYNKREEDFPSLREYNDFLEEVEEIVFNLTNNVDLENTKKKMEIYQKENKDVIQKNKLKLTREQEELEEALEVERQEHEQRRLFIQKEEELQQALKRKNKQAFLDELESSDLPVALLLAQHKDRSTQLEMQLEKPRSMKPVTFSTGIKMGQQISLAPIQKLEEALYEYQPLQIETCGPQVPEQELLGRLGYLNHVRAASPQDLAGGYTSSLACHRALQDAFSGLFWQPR

Substance | effect on the kinase activity of CAK ([1]; concentration not given) | Tat trans-activation [2] | transcription from the DHFR promoter (DHFR promoter) | transcription in the absence of Tat ([3]; increasing concentrations, data not presented) | ratio of long to short transcripts ([3]; regardless of peptide concentration) | IC50 [1]
HARTVGVWYRAEYARFVTPaVV (HARTVGVWYRAEYARFVTP[dA]VV) [rC2p, control] | no effect | did not affect | no effect | no effect | remained the same | 
ARAFGVPVRTYAHEVVTLWYRA [mC2p] |  |  |  |  |  | 1.3 µM
